Results on 20 compounds are retold here after patent US7807668B2, “Anti-inflammatory compounds” (New Zealand Institute for Crop & Food Research Limited, priority 2004, dated 2010).

Where two headings read alike, the source gives them in different places. Some results are limits rather than exact numbers.

One data set concerns rat glioma cells. As to conditions: in vitro; cited from earlier work.
Another data set relates to human neutrophils. Kind of data set: In vitro respiratory burst (superoxide) assay. To be noted: Neutrophil, concentration required to reduce superoxide production to 50% of control, PMA-triggered respiratory burst, WST-1 dye reduction, compound 30 min before, read-out: Al50 (the source's name). The format is cell-based. How it is done: Human neutrophils were isolated from anti-coagulated whole human blood using a Polymorphprep (density 1.13 g/mL, centrifuge 500×g, 40 min). Neutrophils were washed with PBS and plated out at 2×10^6 neutrophils per mL.
Neutrophils were treated with the compound (in DMSO) 30 minutes prior to addition of the detection dye WST-1 (5.5 mM). The respiratory burst was triggered by addition of PMA (200 ng/mL) and dye reduction was monitored (OD 450) for 25 minutes at 37° C.
Respiratory burst activity was calculated as the rate of dye reduction over time and was normalised to untreated cell controls. Anti-inflammatory activity is reported in Table 2 as the concentration required to reduce superoxide production to 50% of control, Al50.

Data set [1] relates to neutrophils in the peritoneal wash. Nature of the data set: Mouse gout model (monosodium urate crystal-induced murine peritonitis). As to conditions: Neutrophil, oral, immediately prior to MSU crystals i.p. The format is in vivo. How it is done:
Mouse Peritionitis was induced by intraperitoneal injection of 1 to 5 mg monosodium urate (MSU) crystals, in […] PBS (0.1M, pH 7.4). Animals were treated with the compound(s) (in 250 μL PBS orally) at the doses indicated immediately prior to administration of the MSU crystals. 4 hours post administration, animals were euthanased by CO2 exposure. The peritoneal cavity was washed with 3 mL of PBS containing 3 mM EDTA and 25 U/mL of heparin. The total cells in the lavage fluid were counted and an appropriate volume retained for H and E staining for differential counting (Getting et al. Molecular Determinants of Monosodium Urate Crystal—induced Murine Peritonitis: A role for Endogenous Mast Cells and a Distinct Requirement for Endothelial-derived Selectins. J. Pharmacology and Experimental Therapeutics 1997, 283: 123-30).
Treatment groups were as follows:
Untreated Control (Naive)
PBS Control (PBS oral+MSU crystals)
Compound(s),(oral)+MSU crystals

Data set [2] relates to lymphocytic leukemia cells. To be noted: in vitro; cited from earlier work.
Where [3] appears, read: superoxide activity of neutrophils in peritoneal wash 4 hours post, read-out: % suppression Superoxide production.
Where [4] appears, read: peritoneal wash 4 hours post, total neutrophils per mL, read-out: % suppression Neutrophil infiltration.

Regarding `CC(C)=CCCc1ccc2c(c1)C(=O)C1=C(NCCS1(=O)=O)C2=O` [(A)], the “cytotoxic to rat glioma cells” value in the data set with rat glioma cells is recorded as “cytotoxic”.
In the case of `CC(C)=CCCc1ccc2c(c1)C(=O)C1=C(C2=O)S(=O)(=O)CCN1` [(B)], the “cytotoxic to rat glioma cells” value in the data set on rat glioma cells is on record as “cytotoxic”.
As for `O=C(O)c1ccc2c(n1)C(=O)C1=C(C2=O)S(=O)(=O)CCN1` [Compound 1, 2H-Pyrido[2,3-g][1,4]benzothiazine-5,10-dione, 3,4-dihydr-1,1-dioxo-7-carboxylic acid], the IC50 in the data set with human neutrophils came to 0.14 µM.
The same measure, in the same setting: as for `O=C(O)c1ccc2c(n1)C(=O)C1=C(NC=CS1(=O)=O)C2=O` [Compound 2], the figure is 0.07 µM.
Regarding `COC(=O)c1ccc2c(n1)C(=O)C1=C(C2=O)S(=O)(=O)CCN1` [Compound 3, Methyl-2H-pyrido[2,3-g][1,4]benzothiazine-5,10-dione, 3,4-dihydro-1,1-dioxo-7-carboxylate], the inhibition in vivo at 25.6 µmol/kg in data set [1] (setting [3]) came to 80%. Further, the IC50 with human neutrophils came to 1.12 µM.
Turning to `CCCCCCCCOC(=O)c1ccc2c(n1)C(=O)C1=C(C2=O)S(=O)(=O)CCN1` [Compound 4, Octyl-2H-pyrido[2,3-g][1,4]benzothiazine-5,10-dione, 3,4-dihydro-1,1-dioxo-7-carboxylate], in the data set on human neutrophils, the IC50 was 9.04 µM.
Take `N#Cc1ccc2c(n1)C(=O)C1=C(C2=O)S(=O)(=O)CCN1` [Compound 5, 2H-Pyrido[2,3-g][1,4]benzothiazine-5,10-dione, 3,4-dihydro-1,1-dioxo-7-carbonitrile]: the values for the inhibition in vivo at 25.6 µmol/kg in data set [1] (setting [4]) and in data set [1] (setting [3]) were 25% and 50%, respectively. Also, the IC50 in the data set with human neutrophils was found to be 1.57 µM.
Consider `N#Cc1ccc2c(O)c3c(c(O)c2n1)NCCS3(=O)=O` [Compound 6, 2H-Pyrido[2,3-g][1,4]benzothiazine-5,10-dihydroxy, 3,4-dihydro-1,1-dioxo-7-carbonitrile], for which the IC50 in the data set with human neutrophils turned out to be 4.85 µM.
For `Cc1ccc2c(n1)C(=O)C1=C(C2=O)S(=O)(=O)CCN1` [Compound 9, 2H-Pyrido[2,3-g][1,4]benzothiazine-5,10-dione, 3,4-dihydro-7-methyl-1,1-dioxide], the inhibition in vivo at 25.6 µmol/kg stood at 50% in data set [1] (setting [4]) and 80% in data set [1] (setting [3]). In the data set on human neutrophils, the IC50 is above 90 µM.
The corresponding values for `Cc1ccc2c(n1)C(=O)C1=C(NCCS1(=O)=O)C2=O` [Compound 10, 1H-Pyrido[3,2-g][1,4]benzothiazine-5,10-dione, 2,3-dihydro-7-methyl-1,1-dioxide] are 30%, 40% and above 90 µM.
Regarding `O=C1C2=C(NCCS2(=O)=O)C(=O)c2ncccc21` [Compound 11, 2H-Pyrido[2,3-g][1,4]benzothiazine-5,10-dione, 3,4-dihydro-1,1-dioxide], the inhibition in vivo at 25.6 µmol/kg in data set [1] (setting [4]) came out at 30%; in data set [1] (setting [3]) it was 20%. Also, in the data set with human neutrophils, the IC50 worked out at 30 µM.
In the same order, the values of `CN(C)C(=O)c1ccc2c(n1)C(=O)C1=C(C2=O)S(=O)(=O)CCN1` [Compound 12, 2H-Pyrido[2,3-g][1,4]benzothiazine-5,10-dione, 3,4-dihydro-N,N-dimethyl-1,1-dioxo-7-carboxamide] are 65%, 85% and 79 µM.
As to `CN(C)C(=O)c1ccc2c(n1)C(=O)C1=C(NCCS1(=O)=O)C2=O` [Compound 13, 1H-Pyrido[3,2-g][1,4]benzothiazine-5,10-dione, 2,3-dihydro-N,N-dimethyl-1,1-dioxo-7-carboxamide], the IC50 with human neutrophils was 149 µM.
Turning to `O=C(/C=C/c1ccc2c(n1)C(=O)C1=C(C2=O)S(=O)(=O)CCN1)c1ccccc1` [Compound 16, (E)-1-phenyl-3-(2H-Pyrido[2,3-g][1,4]benzothiazine-5,10-dione, 3,4-dihydro-1,1-dioxide)prop-2-en-1-one.], the inhibition in vivo at 25.6 µmol/kg was determined as 30% in data set [1] (setting [4]) and 65% in data set [1] (setting [3]). Moreover, the IC50 in the data set with human neutrophils is 7.76 µM.
Take `O=C1C2=C(NCCS2(=O)=O)C(=O)c2nc(C3OCCO3)ccc21` [Compound 17]: the IC50 in the data set with human neutrophils was above 74 µM.
Turning to `O=Cc1ccc2c(n1)C(=O)C1=C(C2=O)S(=O)(=O)CCN1` [Compound 18, 2H-Pyrido[2,3-g][1,4]benzothiazine-5,10-dione, 3,4-dihydro1,1-dioxo-7-carbaldehyde], the inhibition in vivo at 25.6 µmol/kg in data set [1] (setting [3]) turned out to be 40%. The IC50 with human neutrophils came to 4.17 µM.
In the case of `COC(O)c1ccc2c(n1)C(=O)C1=C(C2=O)S(=O)(=O)CCN1` (stereo not drawn) [Compound 19], the IC50 in the data set with human neutrophils amounted to 13 µM.
In the case of `O=C(O)c1ccc2c(n1)C(=O)C1=C(C2=O)S(=O)(=O)C=CN1` [Compound 20, 4H-Pyrido[2,3-g][1,4]benzothiazine-5,10-dione-1,1-dioxo-7-carboxylic acid], the IC50 in the data set on human neutrophils was 0.09 µM.
Take `Cc1ccc2c(n1)C(=O)C1=C(C2=O)S(=O)(=O)C=CN1` [Compound 21, 4H-Pyrido[2,3-g][1,4]benzothiazine-5,10-dione-7-methyl-1,1-dioxide]: the values for the inhibition in vivo at 25.6 µmol/kg in data set [1] (setting [4]) and in data set [1] (setting [3]) were 30% and 40%, respectively. Further, the IC50 with human neutrophils worked out at 8.93 µM.
For `O=C1C2=C(C(=O)c3ccccc31)S(=O)(=O)CCN2` [Compound 22, 2H-Naphtho[2,3-b]-1,4-thiazine-5,10-dione, 3,4-dihydro-1,1-dioxide], the “cytotoxic to lymphocytic leukemia cells” value in data set [2] was “cytotoxic”. Also, the figures for the inhibition in vivo at 25.6 µmol/kg in data set [1] (setting [4]) and in data set [1] (setting [3]) were 25% and 80%, respectively. Besides, in the data set with human neutrophils, the IC50 was above 106 µM.
